Laboratory results reported in ChEMBL document CHEMBL1201862, “PubChem BioAssay data set” (2004).
Active and inactive are the calls of the source.

Key:
[1] = target: T1, Endoribonuclease toxin MazF (Escherichia coli K-12, UniProt P0AE70); assay: MazF toxin RNase activators, dose response, biochemical, fluorescence, single-stranded RNA substrate, uHTS hits (AID 588481); assay type: functional
T1 sequence (P0AE70 whole entry): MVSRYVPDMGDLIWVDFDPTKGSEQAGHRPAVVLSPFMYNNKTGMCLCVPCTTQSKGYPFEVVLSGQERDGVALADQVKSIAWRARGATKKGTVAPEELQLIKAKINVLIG

[2] = target: Induced myeloid leukemia cell differentiation protein Mcl-1 (Homo sapiens, UniProt Q07820); assay type: functional
[3] = target: T1, Endoribonuclease toxin MazF; assay: fluorescent RNA oligo signal without MazF, dose response, counter-screen for MazEF activator project, biochemical, fluorescence, single-stranded RNase substrate (AID 588502); assay type: functional
Protein Wnt-3a = Protein Wnt-3a (Mus musculus, UniProt P27467); assay: Wnt3a-driven reporter signaling inhibition, dose response, selectivity assay for Gli-SUFU antagonist project, Wnt-LIGHT cells, luminescence (AID 651570); assay type: functional; settings: read-out: IC50_Mean;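 further: Wnt-LIGHT reporter cells stimulated with conditioned medium from Wnt3a-producing cells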
INS1 = assay: beta cell apoptosis inhibitors, cytokine rescue, dose response, luminescence, retest (AID 449756); assay type: functional, cell-based; settings: Rattus norvegicus;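 further: cell death triggered by IL-1 beta plus TNF-alpha plus IFN-gamma mixture; protective hits raise ATP signal compared with cytokine alone wells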
Beta Lactamase = Beta Lactamase (Pseudomonas aeruginosa, UniProt Q932Y6); assay: beta-lactamase reporter inhibitor potency, dose response, artefact control for TLR9-MyD88 binding inhibitor project, BLA reporter cells, FRET fluorescence (AID 588341); assay type: cell-based;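 further: cell based assay in CHO-K1 cells stably expressing beta-lactamase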
H9c2 = assay: cells; assay type: functional, cell-based; settings: Rattus norvegicus, H9c2, Myocardium;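 further: confirmatory concentration-response retest of ultra-high-throughput screening hits for modulation of myocardial damage; cell death induced by hydrogen peroxide oxidative stress; compound pretreatment for 60 min then peroxide exposure for 2 h; potency is for protecting the cells against peroxide damage rather than for killing them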
CHO = assay: cytotoxicity in TLR9-MyD88 CHO cells, dose response, cytotoxicity control for TLR9-MyD88 binding inhibitor project, cell-based, luminescence (AID 588339); assay type: functional, hamster; settings: Cricetulus griseus;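 further: CHO cells stably coexpressing TLR9 and MyD88 fusions from primary screen; compound exposure lasted 48 hours before viability readout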
[4] = target: 72 kDa type IV collagenase (Homo sapiens, UniProt P08253); assay: Dose Response validation of uHTS RPN11 inhibitor hits using a MMP-2 Fluorescence assay.; assay type: functional
[5] = target: 26S proteasome non-ATPase regulatory subunit 14 (Homo sapiens, UniProt O00487); assay: inhibition of proteasome subunit RPN11 – biochemical, fluorescence polarization, uHTS hits, confirmation (AID 602368); assay type: functional
Prothrombin = Prothrombin (Bos taurus, UniProt P00735); assay: thrombin inhibition, dose response, biochemical, fluorescence polarization, uHTS hits (AID 602369); assay type: functional
[6] = target: T2, Corticotropin-releasing factor receptor 2/Corticotropin-releasing factor-binding protein (Homo sapiens, UniProt P24387+Q13324); assay: Dose Response confirmation of uHTS hits for small molecule antagonists of the CRF-binding protein and CRF-R2 receptor complex.; assay type: functional; settings: read-out: IC50_Mean
T2 sequence (Q13324 whole entry): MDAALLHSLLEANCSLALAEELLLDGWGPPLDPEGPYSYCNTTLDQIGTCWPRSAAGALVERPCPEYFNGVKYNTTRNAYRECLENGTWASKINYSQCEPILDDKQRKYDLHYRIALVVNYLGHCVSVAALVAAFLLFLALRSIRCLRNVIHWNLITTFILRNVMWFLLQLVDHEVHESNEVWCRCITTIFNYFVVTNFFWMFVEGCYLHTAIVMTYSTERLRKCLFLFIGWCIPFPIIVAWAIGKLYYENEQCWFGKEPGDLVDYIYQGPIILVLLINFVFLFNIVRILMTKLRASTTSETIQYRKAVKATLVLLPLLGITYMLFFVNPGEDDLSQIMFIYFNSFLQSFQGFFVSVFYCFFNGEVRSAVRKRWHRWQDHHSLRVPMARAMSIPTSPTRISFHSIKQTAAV
T2 sequence (P24387 whole entry): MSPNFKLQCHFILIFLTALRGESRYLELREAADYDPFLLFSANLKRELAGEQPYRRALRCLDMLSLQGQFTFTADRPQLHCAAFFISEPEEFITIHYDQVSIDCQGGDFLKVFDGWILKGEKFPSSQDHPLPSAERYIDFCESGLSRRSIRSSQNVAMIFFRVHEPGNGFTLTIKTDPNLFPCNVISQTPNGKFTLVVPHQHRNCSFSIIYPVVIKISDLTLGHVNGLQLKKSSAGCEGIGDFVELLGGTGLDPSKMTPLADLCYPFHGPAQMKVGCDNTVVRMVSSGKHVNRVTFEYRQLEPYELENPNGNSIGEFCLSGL

[7] = CRF-BP/CRF-R2 complex antagonists, dose response, cell-based, uHTS hits, 384-well (AID 651639); assay type: functional, Homo sapiens; settings: read-out: IC50_Mean
[8] = target: T2, Corticotropin-releasing factor receptor 2/Corticotropin-releasing factor-binding protein; assay: activators of CRF receptor 2 with binding protein – uHTS hits, confirmation (AID 602473); assay type: functional; settings: read-out: EC50_Mean
[9] = test system: Streptococcus sp. 'group A'; assay: growth inhibition of control SK(-) GAS strain, dose response, counter-screen for streptokinase expression inhibitor project, luminescence, kanamycin, BacTiterGlo, confirmation (AID 1900); assay type: functional, organism-based
Streptococcus = assay: Group A Streptococcus viability loss, dose response, counter-screen for streptokinase expression inhibitor project, luminescence, BacTiterGlo (AID 1915); assay type: functional, organism-based;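 further: potency for reduction of bacterial viability or growth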
[10] = miR-122 activators in hepatoma reporter cells, dose response, cell-based, Huh7 psiCHECK-miR122, Renilla luciferase, cherry-picked (AID 651956); assay type: functional;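 further: huh7 hepatoma cells stably carrying a psiCHECK-2 miR-122 sensor plasmid; renilla luciferase signal reporting endogenous miR-122 activity after 48 h compound exposure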
Estrogen receptor = target: T3, Estrogen receptor (Homo sapiens, UniProt P03372);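 further: potency for inhibiting coactivator peptide recruitment to the receptor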
T3 sequence (P03372 whole entry): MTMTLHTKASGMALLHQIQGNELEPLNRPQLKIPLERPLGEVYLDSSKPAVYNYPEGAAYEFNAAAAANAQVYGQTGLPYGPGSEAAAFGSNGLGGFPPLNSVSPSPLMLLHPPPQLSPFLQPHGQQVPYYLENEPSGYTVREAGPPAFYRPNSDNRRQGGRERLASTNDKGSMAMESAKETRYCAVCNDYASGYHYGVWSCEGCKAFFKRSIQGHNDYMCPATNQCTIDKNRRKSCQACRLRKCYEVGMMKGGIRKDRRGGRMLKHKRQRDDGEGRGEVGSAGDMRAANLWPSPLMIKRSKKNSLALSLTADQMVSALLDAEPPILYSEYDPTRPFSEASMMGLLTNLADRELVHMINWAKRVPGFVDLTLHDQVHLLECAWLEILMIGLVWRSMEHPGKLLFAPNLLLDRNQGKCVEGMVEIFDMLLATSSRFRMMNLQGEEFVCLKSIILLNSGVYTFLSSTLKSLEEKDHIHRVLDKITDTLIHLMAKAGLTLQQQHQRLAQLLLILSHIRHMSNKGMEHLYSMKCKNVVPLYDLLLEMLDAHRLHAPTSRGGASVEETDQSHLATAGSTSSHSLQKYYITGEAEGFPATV

26S proteasome non-ATPase regulatory subunit 14, sequence (O00487 whole entry): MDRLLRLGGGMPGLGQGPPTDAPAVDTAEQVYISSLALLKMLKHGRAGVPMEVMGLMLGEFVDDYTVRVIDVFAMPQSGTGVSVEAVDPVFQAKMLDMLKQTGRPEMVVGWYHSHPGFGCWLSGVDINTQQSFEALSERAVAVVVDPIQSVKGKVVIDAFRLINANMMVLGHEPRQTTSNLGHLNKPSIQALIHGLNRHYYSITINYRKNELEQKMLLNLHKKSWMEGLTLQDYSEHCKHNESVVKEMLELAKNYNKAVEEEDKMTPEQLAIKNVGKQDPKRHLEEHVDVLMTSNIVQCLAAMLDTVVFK
72 kDa type IV collagenase, sequence (P08253 whole entry): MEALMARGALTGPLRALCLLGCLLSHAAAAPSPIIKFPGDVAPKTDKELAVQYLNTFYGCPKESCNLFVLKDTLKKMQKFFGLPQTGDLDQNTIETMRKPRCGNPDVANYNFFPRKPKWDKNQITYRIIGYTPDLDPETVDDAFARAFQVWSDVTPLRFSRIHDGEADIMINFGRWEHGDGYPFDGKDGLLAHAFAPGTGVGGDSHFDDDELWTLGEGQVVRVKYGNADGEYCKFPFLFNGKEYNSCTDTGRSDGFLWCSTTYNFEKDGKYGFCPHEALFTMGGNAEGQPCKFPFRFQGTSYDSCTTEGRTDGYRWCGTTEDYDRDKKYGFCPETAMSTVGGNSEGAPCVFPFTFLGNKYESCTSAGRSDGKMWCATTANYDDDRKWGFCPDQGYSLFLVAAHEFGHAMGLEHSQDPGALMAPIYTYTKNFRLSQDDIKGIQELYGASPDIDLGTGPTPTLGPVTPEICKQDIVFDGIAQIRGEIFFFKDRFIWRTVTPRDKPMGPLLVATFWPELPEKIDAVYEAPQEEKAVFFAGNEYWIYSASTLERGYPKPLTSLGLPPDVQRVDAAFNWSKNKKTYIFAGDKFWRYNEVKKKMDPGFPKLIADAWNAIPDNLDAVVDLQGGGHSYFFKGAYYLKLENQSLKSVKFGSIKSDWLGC
Induced myeloid leukemia cell differentiation protein Mcl-1, sequence (Q07820 whole entry): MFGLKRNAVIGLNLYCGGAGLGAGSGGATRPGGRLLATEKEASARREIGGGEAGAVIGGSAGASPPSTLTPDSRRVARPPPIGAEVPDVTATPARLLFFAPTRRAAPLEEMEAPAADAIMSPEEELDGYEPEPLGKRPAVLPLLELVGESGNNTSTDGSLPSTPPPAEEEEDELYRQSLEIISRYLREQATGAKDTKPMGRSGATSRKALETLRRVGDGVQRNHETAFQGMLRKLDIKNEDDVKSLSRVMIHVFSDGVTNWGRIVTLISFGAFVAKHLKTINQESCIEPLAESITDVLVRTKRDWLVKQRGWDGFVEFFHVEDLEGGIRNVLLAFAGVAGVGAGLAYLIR
Beta Lactamase, sequence (Q932Y6 whole entry): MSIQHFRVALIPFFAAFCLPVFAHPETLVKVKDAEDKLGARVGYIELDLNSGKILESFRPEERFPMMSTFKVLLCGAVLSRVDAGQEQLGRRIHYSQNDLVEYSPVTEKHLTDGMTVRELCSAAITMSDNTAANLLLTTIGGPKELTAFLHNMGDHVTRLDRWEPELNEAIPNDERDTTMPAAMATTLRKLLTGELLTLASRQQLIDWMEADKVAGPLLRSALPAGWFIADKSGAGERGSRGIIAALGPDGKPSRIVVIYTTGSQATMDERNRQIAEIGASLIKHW
Protein Wnt-3a, sequence (P27467 whole entry): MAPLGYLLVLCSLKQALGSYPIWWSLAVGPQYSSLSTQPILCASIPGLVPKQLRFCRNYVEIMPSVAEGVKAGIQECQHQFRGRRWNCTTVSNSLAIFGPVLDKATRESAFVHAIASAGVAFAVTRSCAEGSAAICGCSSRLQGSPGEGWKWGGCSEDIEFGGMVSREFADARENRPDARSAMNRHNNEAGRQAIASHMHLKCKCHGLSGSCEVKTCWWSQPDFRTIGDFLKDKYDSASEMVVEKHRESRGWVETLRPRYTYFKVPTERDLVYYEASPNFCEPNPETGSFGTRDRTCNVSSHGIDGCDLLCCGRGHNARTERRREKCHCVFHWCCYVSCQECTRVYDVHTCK

Question: With `COc1ccc(-c2ccc(/C=C3/C(=N)N4C=CSC4=NC3=O)o2)c([N+](=O)[O-])c1` as the molecule, how does the EC50 [1] read?
Answer: 19.6 µM (active)

Question: What about the IC50 [2] of the same molecule?
Answer: 1.52 µM (active)

Question: What about the EC50 [3] of the same molecule?
Answer: > 99 µM (inactive)

Question: Which IC50 (Protein Wnt-3a) does the source give for `Cc1sc2ncnc(NCc3cccs3)c2c1C` here?
Answer: 1.81 µM (active)

Question: And the AC50 (INS1)?
Answer: 4.79 µM (active)

Question: Which IC50 (Beta Lactamase) does the source give for `COc1cc2oc3cc(C#Cc4ccc(N)cc4)ccc3c(=O)c2cc1OC` here?
Answer: 3.6 µM (active)

Question: And the IC50 (H9c2)?
Answer: > 79 µM (inactive)

Question: And the IC50 (CHO)?
Answer: > 49.7 µM (inactive)

Question: What does the source list for `O=C(NCc1ccc(F)cc1)c1cccc2c1C(=O)c1ccc(N3CCOCC3)cc1S2(=O)=O`?
Answer: IC50 [4]: > 100 µM (inactive); IC50 [5]: 16.6 µM (active); IC50 (Prothrombin): 24.1 µM (active)

Question: What does the source list for `Cc1noc(C)c1CSCc1ccc(Cl)cc1`?
Answer: IC50 [6]: 35.6 µM (active); IC50 [7]: > 20 µM (inactive); EC50 [8]: > 53 µM (inactive)

Question: Which EC50 [9] does the source give for `CO/N=C(/C(=O)N[C@@H]1C(=O)N2C(C(=O)O)=CCS[C@H]12)c1cnc(N)s1` here?
Answer: < 0.06 µM (active)

Question: What about the IC50 [4] of the same molecule?
Answer: 0.122 µM (active)

Question: And the IC50 [5]?
Answer: 1.33 µM (active)

Question: And the EC50 (Streptococcus)?
Answer: < 0.06 µM (active)

Question: And the IC50 (Prothrombin)?
Answer: 54.1 µM (active)

Question: Which AC50 [10] does the source give for `C[C@@H]1CN([C@@H](C)CO)S(=O)(=O)c2ccc(C3=CCCCC3)cc2O[C@@H]1CN(C)C(=O)Cc1ccncc1` here?
Answer: 6.22 µM (active)

Question: With `Cc1c(/C=N/n2cnnc2)c2ccccc2n1CCOc1ccc(Cl)cc1` as the molecule, how does the EC50 [1] read?
Answer: > 99 µM (inactive)

Question: And the IC50 (Estrogen receptor)?
Answer: > 50 µM (not active)

Question: What about the EC50 [3] of the same molecule?
Answer: > 99 µM (inactive)
